Tests used:
MM cells = test: Surface CD138 expression of MM cells by flow cytometry; type: cell-based, human
Procedure: (§1) Coculture experiments. 24-well plates were coated with 0.1% gelatin in PBS for 30 min at 37° C. The gelatin solution was removed, and the stromal cells were cultured overnight at a density of 5×10^4 cells/well to obtain a confluent monolayer. At that time, MM cell lines or primary MM cells (1×10^5 in 2 ml) were added to the stroma cultures. The stroma cocultures were incubated at 37° C. in RPMI containing 10% FCS, L-glutamine, and P/S, with or without AGN19194310 (1 μM for 5 days), R115866 (1 μM for 5 days), IRX5183 (1 μM for 5 days), or BTZ (2.5 nM for 48 hr).
Flow cytometry. Following treatment, MM cells were collected, washed with PBS, and stained for 15 min at room temperature with phycoerythrin-conjugated (PE-conjugated) anti-CD138. Cells were washed to remove unbound antibody and evaluated in a FACSCalibur system (BD Biosciences). Stromal cells were identified by GFP expression, and viable cells were identified using 7-aminoactinomycin D (7-AAD). To calculate cell numbers, live GFP-cells were normalized to calibration beads.

[1] = tested on: MM H929 cell lines and MM CD138+ primary cells; test: qRT-PCR of B cell and PC markers in MM cells with or without BM stroma coculture; type: cell-based, human; conditions: for mRNA expression of B cell and PC markers (BCL6, BLIMP1, XBP1s, CHOP): compound 1 μM for 5 days; for expression of differentiation markers by qRT-PCR or flow cytometry: liquid conditions versus BM stroma
Procedure: Cell cultures. All cell lines were purchased from the American Type Culture Collection. H929, MM1s, and U266 cells were cultured in RPMI 1640 with 10% FCS (Sigma-Aldrich), 2 mM L-glutamine, and 100 μg/ml penicillin-streptomycin (P/S). OP-9 cells were cultured in α-MEM, 20% FCS, L-glutamine, and P/S. Cell lines were authenticated by short-tandem repeat profiling.
Primary MM cells were obtained from patients with newly diagnosed or relapsed MM under an IRB-approved protocol at The Johns Hopkins University. Briefly, mononuclear cells were isolated from fresh BM aspirates by density gradient centrifugation (Ficoll-Paque); CD138+ cells were then selected via magnetic beads and columns and incubated in RPMI 1640, 10% FCS, L-glutamine, and P/S at 37° C.
as §1
(§2) qRT-PCR. Total RNA was extracted using the RNeasy Mini Kit (QIAGEN) according to the manufacturer's instructions. cDNA was synthesized by reverse transcription using the iScript cDNA Synthesis Kit (Bio-Rad). qRT-PCR was performed with iTaq SYBR Green Supermix (Bio-Rad) using sequence specific primers. Gene expression was normalized to GAPDH, and relative quantification was calculated using ΔΔCt. All experiments were performed in duplicate and run on the Bio-Rad CFX96 machine.

[2] = tested on: MM cell lines and MM CD138+ primary cells; test: BTZ sensitivity (clonogenic or cellular recovery) of MM cells after incubation with BM stroma; type: cell-based, human; conditions: for effect on stroma-induced BTZ resistance: stroma coculture with compound 1 μM 5 days
Procedure: as §1
Mobilization experiments. MM cells were separated from BM stromal cells by gently pipetting several times around the well. Detached cells were centrifuged, resuspended in fresh media, and incubated in a 24-well plate for 1 hr at 37° C. During this short incubation period, contaminating stromal cells attached to the well, while MM cells remained in suspension. MM cells were then recovered by gently pipetting. This protocol was used for qRT-PCR and CFU coculture experiments. The purity achieved using this protocol was confirmed by flow cytometry to be 98%-99% MM cells and less than 2% contaminating stroma.
Clonogenic assays. After treatment, MM cells were collected, washed with PBS, and plated at a density of 5,000 cells/ml in 1 ml of 1.32% methylcellulose supplemented with 30% FBS, 10% BSA, L-glutamine, P/S, and 0.1 mM p-ME. Cells were plated in triplicate in 35-mm culture dishes, incubated at 37° C., and scored for the presence of colonies 14 days later.

[3] = tested on: OCI-AML 3, Kasumi-1 and APL NB4 cells; test: Clonogenic growth of AML cell lines in the presence or absence of stroma; type: cell-based; conditions: for clonogenic growth (CFU) compared to control: off and on stroma, NB4: 10^-7 M IRX5183, 10^-8 M AM80, OCI-AML3, Kasumi-1: 10^-6 M IRX5183, 10^-7 M AM80; for clonogenic growth: presence or absence of stroma
Procedure: The BM stroma, which expresses inducibly high levels of CYP26, metabolically inactivates ATRA and provides a protected environment for AML cancer stem cells. Synthetic, CYP26-resistant RARα agonists, such as IRX5183 and AM80, should be able to bypass stroma-mediated protection of AML cells and differentiate the cancer stem cells resident in the protected environment of bone marrow niche. To test these hypotheses, clonogenic growth experiments were conducted in the non-APL AML cell lines OCI-AML 3 and Kasumi-1 and APL NB4 cells, which were treated with ATRA, IRX5183, and AM80 in the presence or absence of stroma.

[4] = tested on: FLT3/ITD acute myeloid leukemia (AML) cells; conditions: recent studies; cited from earlier work
AML = conditions: patients; cited from earlier work
non-APL AML cells = conditions: in vitro; cited from earlier work
[5] = tested on: H929 Luc+ cells with WT or Smo-KO stroma; test: Subcutaneous xenograft model of MM-niche interactions (WT or Smo-KO stroma); type: in vivo, NSG mice
Procedure: Mouse xenografts. 1×10^6 H929 Luc+ cells and 1×10^6 mouse BM stromal cells were resuspended in 100 μl Matrigel, diluted with RPMI (1:1), and injected subcutaneously into 16-week-old male NSG mice. After 4 days, treatment with BTZ (0.5 mg/kg i.p. twice weekly) and IRX (10 mg/kg i.p. daily) was initiated. Tumor burden was assessed by bioluminescence using the In Vivo Imaging System (PerkinElmer). For imaging, mice were exposed to 120 mg/kg D-luciferin via intraperitoneal injection […] before imaging and were anesthetized using isoflurane. Images were analyzed with Living Image Software, version 2.5 (PerkinElmer), and data were quantified as photons/second.
To study to what extent an RA-low environment created by the BM stroma and enhanced by MM cells via paracrine Hedgehog signaling contributes to BTZ resistance, a xenograft model of MM-niche interactions was developed. Each mouse carried 2 subcutaneous tumors consisting of H929 Luc+ cells and either WT (anterior tumors) or Smo-KO stroma (posterior tumors). Mice were treated with IRX (10 mg/kg i.p. daily), BTZ (0.5 mg/kg i.p. twice weekly), or a combination of both. The growth of tumors bearing WT or Smo-KO stroma was not different in untreated or IRX-treated groups (FIGS. 7 and 8). […] While some tumors in the treatment group receiving combined IRX and BTZ appeared to have regressed completely, even after anatomical study, this was not the case for all the mice in this group.

[6] = tested on: H929 luciferase+ (Luc+) cells; test: Systemic MM xenograft, bioluminescence imaging; type: in vivo, NSG mice; conditions: 4 weeks; for tumor burden (bioluminescence): monotherapy, BTZ 0.5 mg/kg i.p. twice weekly or IRX 10 mg/kg once daily
Procedure: For the systemic MM model, 2×10^6 Luc+/GFP+H929 cells were injected via the tail vein into 16-week-old male NSG mice. After engraftment, as determined by an exponential increase in bioluminescence, mice were treated with BTZ (0.5 mg/kg i.p.) twice weekly and with IRX (10 mg/kg) once daily. Tumor burden was assessed by bioluminescence, as above.
To test whether retinoids can enhance BTZ activity in MM, a systemic MM xenograft was developed by injecting 2×10^6 H929 luciferase+(Luc+) cells via the tail vein of nonobese, diabetic, severe combined immunodeficiency IL-2 receptor γ-KO (NSG) mice. The animals were randomized to receive IRX, BTZ, or a combination of both, and disease burden was followed weekly by bioluminescence imaging (FIG. 4).

[7] = tested on: BM stromal cells cocultured with MM cells; test: Stromal Cyp26a1 upregulation by MM cells in coculture; type: cell-based, mouse; conditions: SMO inhibitor in coculture
Procedure: as §1, §2
To confirm the role of paracrine Hedgehog on this interaction, smoothened (Smo), a membrane receptor that transduces SHH signaling, was knocked out at the genomic level in the mesenchymal compartment. For this, BM mesenchymal cells derived from Smo^fl/fl mice were transduced with a retroviral vector encoding Cre recombinase (Smo-KO stroma). […]

[8] = tested on: relapse/refractory MM patients; conditions: in combination with BTZ; cited from earlier work
BM stromal cells = test: Effect of soluble factors on CYP26A1 expression in BM stromal cells; type: cell-based; conditions: soluble factor added to BM stromal cells
Procedure: as §2

[9] = BM stromal cell cocultures incubated with compound

CCc1ccc(C2=CC(C)(C)Sc3ccc(C#Cc4ccc(C(=O)O)cc4)cc32)cc1 [AGN194310]
surface CD138 expression (MM cells; absence of stroma, incubation with compound): markedly decreased
mRNA expression of B cell and PC markers (BCL6, BLIMP1, XBP1s, CHOP) ([1]; absence of stroma (Liquid)): mimicked the changes induced by BM stromal cells
effect on BTZ sensitivity ([2]; absence of stroma, compound 1 μM 5 days, then BTZ): decreasing BTZ sensitivity

CC1(C)CCC(C)(C)c2cc(NC(=O)c3ccc(C(=O)O)cc3)ccc21 [AM80, 4-[(5,6,7,8-tetrahydro-5,5,8,8-tetramethyl-2-naphthalenyl)carbamoyl]benzoic acid]
clonogenic growth (CFU) compared to control [3]: decrease in clonogenic growth compared to control
clonogenic growth [3]: inhibited clonogenic growth in the presence of stroma but not as effectively as IRX5183
differentiation and sensitivity to FLT3 inhibitors [4]: differentiates FMS-like tyrosine kinase 3/internal tandem duplication (FLT3/ITD) acute myeloid leukemia (AML) cells and increase their sensitivity to FLT3 inhibitors

CC1=C(/C=C/C(C)=C/C=C/C(C)=C/C(=O)O)C(C)(C)CCC1 [ATRA, All-trans retinoic acid]
clonogenic growth [3]: inhibited clonogenic growth only in the absence of stroma
clinical effectiveness (AML): clinically ineffective
differentiation and apoptosis (non-APL AML cells): causes terminal differentiation and apoptosis

CC(C)C[C@H](NC(=O)[C@H](Cc1ccccc1)NC(=O)c1cnccn1)B(O)O [BTZ, bortezomib]
tumor response (bioluminescence) ([5]; tumors carrying Smo-KO stroma, BTZ 0.5 mg/kg i.p. twice weekly): significant response
tumor response (bioluminescence) ([5]; tumors with WT stroma, BTZ 0.5 mg/kg i.p. twice weekly): refractory to BTZ treatment
tumor burden (bioluminescence) [6]: decreased tumor growth compared with untreated controls
BTZ resistance after separation from BM stroma ([2]; H929 cells, 5-day stroma coculture, fresh media 0 to 48 hr, then BTZ): remained partially resistant to BTZ for up to 48 hr following detachment from stroma
sensitivity of MM cells to BTZ ([2]; Smo-KO stroma compared with WT stroma): increased sensitivity to BTZ
sensitivity of MM cells to BTZ ([2]; absence of BM stroma (liquid), BTZ 2.5 nM 48 hr): highly sensitive to BTZ
sensitivity of MM cells to BTZ ([2]; after 5 days incubation with BM stroma, BTZ 2.5 nM 48 hr): incubation with BM stroma induced BTZ resistance

CC1(C)CCC(C)(C)c2c1cc(C(=O)Nc1cc(F)c(C(=O)O)c(F)c1)c(O)c2Cl [IRX5183]
clonogenic growth (CFU) compared to control [3]: decrease in clonogenic growth compared to control
clonogenic growth [3]: inhibited clonogenic growth to a similar extent in the presence or absence of stroma
growth of tumors bearing WT versus Smo-KO stroma ([5]; IRX 10 mg/kg i.p. daily alone): not different
tumor response (bioluminescence) ([5]; combination of IRX 10 mg/kg daily and BTZ 0.5 mg/kg twice weekly, WT and Smo-KO stroma): significant and equivalent response, regardless of the phenotype of the stromal compartment
surface CD138 expression (MM cells; [9]): restored CD138 expression
expression of differentiation markers by qRT-PCR or flow cytometry [1]: induced comparable changes, irrespective of the presence or absence of BM stroma
mRNA expression of B cell and PC markers (BCL6, BLIMP1, XBP1s, CHOP) ([1]; stroma cocultures): restored all markers to levels comparable to those of liquid control conditions
disease burden (bioluminescence) ([6]; IRX 10 mg/kg daily combined with BTZ 0.5 mg/kg twice weekly): significant (P<0.01) decrease in disease burden
tumor burden (bioluminescence) [6]: decrease in tumor burden compared with untreated mice
effect on stroma-induced BTZ resistance ([2]; then BTZ): overcome

CCC(CC)C(c1ccc(Nc2nc3ccccc3s2)cc1)n1cncn1 (centres unmarked) [R115866]
surface CD138 expression (MM cells; [9]): restored CD138 expression
expression of differentiation markers by qRT-PCR or flow cytometry [1]: did not significantly affect the expression of differentiation markers
mRNA expression of B cell and PC markers (BCL6, BLIMP1, XBP1s, CHOP) ([1]; stroma cocultures): restored all markers to levels comparable to those of liquid control conditions
effect on BTZ resistance after separation from BM stroma ([2]; H929 cells, coculture treated with compound 1 μM before separation): prevented the development of a BTZ-resistant phenotype
effect on stroma-induced BTZ resistance ([2]; then BTZ): overcome

CC1=C2C[C@H]3[C@@H](CC=C4C[C@@H](O)CC[C@@]43C)[C@@H]2CC[C@]12O[C@@H]1C[C@H](C)CN[C@H]1[C@H]2C [cyclopamine]
stromal Cyp26a1 upregulation by MM cells [7]: partially overcame stromal Cyp26a1 upregulation by MM cells

c1cc(CN2CCCNCCNCCCNCC2)ccc1CN1CCCNCCNCCCNCC1 [plerixafor]
response rates [8]: improved response rates

IL-6: cytokine, soluble factor produced by MM cells
upregulation of CYP26A1 on BM stromal cells (BM stromal cells): no significant effects

TNF-α
upregulation of CYP26A1 on BM stromal cells (BM stromal cells): no significant effects

Source: patent US11648222B2, “Use of CYP26-resistant RAR alpha selective agonists in the treatment of cancer” (Io Therapeutics, Inc., priority 2015, dated 2023)
